The text below walks through data of patent EP0665834B1, “QUINOLONE AND ACRIDINONE DERIVATIVES FOR THE TREATMENT OF URINARY INCONTINENCE” (AstraZeneca AB, priority 1992, dated 1994).

In series [1] the test system is guinea pig detrusor strips. As to the kind of experiment: second in vitro test: guinea pig detrusor strips contracted with 80 mM KCl. The note with it: for potency in the second test (80 mM KCl) compared with the first test (15 mM KCl): guinea pig detrusor strips. It counts as cell-based. The procedure: This second in vitro test is similar to the one described above with regard to tissue preparation and data acquisition. However, the following exceptions are noted. In this second test, the contraction of the detrusor strips during priming and after the equilibration period is achieved with 80 mM instead of 15 mM KCl (total concentration in the bath).
Typical calcium channel blockers like nifedipine, nimodipine, isradipine, and verapamil are able to relax and reduce the myogenic activity of guinea pig detrusor strips in both tests by virtue of their blocking action on calcium channels.

Series [2] concerns bladder. Kind of series: in vivo oral test in catheterized rats: bladder contraction interval, blood pressure, heart rate. The note with it: dosed orally at 3 mg/kg body weight. Further details: species or system Male Wistar rats. The procedure: The compound described in Example 1 is active and selective in this test when dosed orally at 3 mg/kg body weight.
Male Wistar rats (400 - 500 g) were anesthetized with 50 mg/kg Nembutal, i.p. For each rat, the abdominal region and the front and back of the neck were shaved and povidone-iodine was applied to the skin. For carotid catheterization, the left carotid artery was exposed via a small ventral cervical incision. The exposed area was flushed with a 2% lidocaine HCl solution to relax the vessel. The catheter, filled with 0.9% saline, was introduced approximately 2.4 cm into the artery so that its tip resided in the aortic arch. The distal end of the catheter was exteriorized at the nape of the neck, filled with heparin (1000 units/ml) and heat sealed. […]
The rats were weighed, orally sham-dosed (dosing needle introduced, but no fluid expelled), and transvesical saline infusion (.18 ml/min) was begun and continued throughout the experiment. Variations in blood pressure, heart rate, intravesical pressure and urine output were recorded on either a Grass Polygraph or a Gould TA4000 recording system. […] At this point, a basal level of each experimental parameter was recorded and the rats were administered by oral gavage the appropriate dose of compound (in a 75% PEG 400 - saline vehicle) in concentrations such that the volume was 1 ml/kg body weight. […]

The test system of series [3] is intestinal smooth muscle. The note with it: Vitolinya et al, 1981; cited from earlier work.
In series [4] the test system is cardiovascular system. The note with it: Vitolinya et al, 1981; cited from earlier work.
The test system of series [5] is guinea pig detrusor strips. As to the kind of experiment: in vitro relaxation of guinea pig bladder detrusor strips contracted with 15 mM KCl (first test). It counts as cell-based, albino Hartley guinea pigs. The note with it: for IC50: Cavia porcellus, 15 mM KCl; for potency: in vitro, in words only. From the text: The actions of compounds of formula I as smooth muscle relaxants useful as therapeutic agents for the treatment of urinary incontinence through their action to open potassium channels and hyperpolarize the membrane potential in the bladder detrusor smooth muscle can be shown using suitably designed in vitro tests, such as the one described following. […] "IC50" is a well understood term and means the concentration of test compound which causes a 50% decrease in the in vitro contraction of the bladder tissue described in the following test.
Hale albino Hartley guinea pigs (450-500g) are sacrificed by carbon dioxide induced asphyxiation and quickly exsanguinated. The lower abdominal cavity is opened and the urinary bladder isolated. The bladder is cleaned of surrounding connective and adipose tissue, and the portion above the ureteral orifices is removed and washed in Krebs-Henseleit buffer solution of the following composition (in mH): NaCl 118.0, KCl 4.7, […] 1.2, KH2PO4 1.2, CaCl2 2.5, NaHCO3 25.0 and d-glucose 11.1. The solution is warmed to 37°C and gassed with 95% O2 and 5% CO2. With vigorous bubbling, the solution should have a pH value close to 7.4.
The dome of the washed bladder is cut off and discarded; the remaining bladder is placed on a gauze in a Petri dish containing the buffer solution. A mid-ventral longitudinal cut is made with scissors to open the bladder. The strips cut from the dome and the base edge are discarded. The remaining detrusor mid-section is cut into two horizontal strips with an approximate width of 2.0 mm. These two strips are further bisected at the mid-dorsal section, creating four strip of similar dimensions. Each strip thus contains both dorsal and ventral portions of the bladder.
The two ends of each individual strip are tied to a glass support rod and a force-displacement transducer (Grass model FR03), respectively, with 4-0 black braided silk suture.
The transducers are connected to a polygraph (Grass model 7E), which is calibrated at 5 mV/cm and the calibration checked for linearity with weights of 5 and 0.5 grams. The analog electrical output signals from the polygraph are digitized by a Modular Instrument Hicro 5000 signal processing system using Biowindow Data Acquisition Software, which is run under the Hicrosoft OS/2 operating system with an IBM-compatible PC.
The detrusor strips on the glass rod are secured in 20 ml tissue baths and allowed to equilibrate under a preload tension of 2 grams. […]
When the tissue relaxes to a steady state after the final washing, 15 mH KCl is again applied. […] The effect of the compound at each dose is expressed as % of the maximum inhibitory response, which is further normalized with respect to the corresponding effect of the compound vehicle control. […]

Series [6] in a line: chemical stability (no method given). The series is classed as physicochemical. The conditions noted are these: in words; compared with corresponding compounds wherein R^2 is methyl.
Series [7] concerns urinary incontinence. The conditions noted are these: preliminary clinical trial; Nurse et al, British Journal of Urology (1991); cited from earlier work.

Turning to `COc1ccc(CCN(C)CCCC(C#N)(c2ccc(OC)c(OC)c2)C(C)C)cc1OC` (centres unmarked) [verapamil], the “potency in the second test (80 mM KCl) compared with the first test (15 mM KCl)” value in series [1] is given as “more potent in the second test”.
Regarding `CC1=CC(c2cccc([N+](=O)[O-])c2)C2=C(CCCC2=O)N1` (centres unmarked) [Example 1, 2-Methyl-4-(3-nitrophenyl)-4,6,7,8-tetrahydro-5(1H)-quinolone], the outcome in series [2] was active.
`CC1=C(C#N)C(c2ccccc2)C2=C(CC(C)(C)CC2=O)N1` (centres unmarked) [3-Cyano-4-phenyl-2,7,7-trimethyl-4,6,7,8-tetrahydro-5(1H)-quinolone]: the “blocking of spasmogenic effect of acetylcholine and barium chloride” value in series [3] is recorded as “capable of blocking the spasmogenic effect”. For the same compound, the hypotensive properties result in series [4] is reported as “hypotensive properties”.
`COC(=O)C1=C(C)NC(C)=C(C(=O)OC(C)C)C1c1cccc2nonc12` (centres unmarked) [isradipine]: the “potency in the second test (80 mM KCl) compared with the first test (15 mM KCl)” value in series [1] was “more potent in the second test”.
With `COc1ccc(Cc2nccc3cc(OC)c(OC)cc23)cc1OC` [papaverine], the “effect on sustained tension after high KCl stimulation” value in series [1] (80 mM KCl, 300 µM) was “totally abolished”.
`CC1=CC(c2ccc(C(F)(F)F)cc2)C2=C(CCCC2=O)N1` (centres unmarked) [Example 9, 2-Methyl-4-(4-trifluoromethylphenyl)-4,6,7,8-tetrahydro-5(1H)-quinolone] showed an IC50 in series [5] (concentration causing 50% decrease in in vitro contraction of bladder tissue) of 8.11 µM.
As to `O=C1CCCC2=C1C(c1cccc([N+](=O)[O-])c1)C=C(C(F)(F)F)N2` (centres unmarked) [Example 15, 2-Trifluoromethyl-4-(3-nitrophenyl)-4,6,7,8-tetrahydro-5(1H)quinolone], in series [6], the chemical stability entry was “superior”. Further, in series [5], the potency entry was “surprisingly good potency in vitro”.
The matching figures for `N#Cc1cccc(C2C=C(C(F)(F)F)NC3=C2C(=O)CCC3)c1` (centres unmarked) [Example 39, 2-Trifluoromethyl-4-(3-cyanophenyl)-4,6,7,8-tetrahydro-5(1H)-quinolone]: “superior” and “surprisingly good potency in vitro”.
`CC1(C)Oc2ccc(C#N)cc2C(N2CCCC2=O)C1O` (centres unmarked) [cromakalim]: in series [5] (relaxant activity in the first test), the half-inhibitory concentration (IC50) lay in the range of 0.6 to 0.9 µM. In addition, the “efficacy in treatment of urinary incontinence” value in series [7] is on record as “effective”. Further, the relaxant activity entry in series [1] (80 mM KCl, at concentrations as high as 30 µM) is “insignificant relaxant activity”.
